{"source": "ChEMBL document CHEMBL5576059", "about": "“Design, synthesis and molecular docking study of novel triazole-quinazolinone hybrids as antimalarial and antitubercular agents” (Bioorg Med Chem Lett, 2024)", "key": {"[1]": {"system": "RAW264.7", "test": "Cytotoxicity against mouse RAW264.7 cells at 25 microg/ml by MTT assay", "type": "toxicity, cell-based", "settings": "dose 25 µg/ml"}, "[2]": {"system": "Plasmodium falciparum", "test": "Antimalarial activity against Plasmodium falciparum assessed as inhibition of parasite growth", "type": "functional, organism-based"}, "[3]": {"system": "Mycobacterium tuberculosis", "test": "Antitubercular activity against Mycobacterium tuberculosis H37RV ATCC27294 assessed as inhibition of bacterial growth by MABA assay", "type": "functional"}, "[4]": {"test": "Cytotoxicity against mouse RAW264.7 cells assessed as inhibition of cell growth at 78.29 uM by MTT assay relative to control", "type": "toxicity, cell-based"}, "[5]": {"test": "Cytotoxicity against mouse RAW264.7 cells assessed as inhibition of cell growth at 66.37 uM by MTT assay relative to control", "type": "toxicity, cell-based"}, "[6]": {"test": "Cytotoxicity against mouse RAW264.7 cells assessed as inhibition of cell growth at 81.35 uM by MTT assay relative to control", "type": "toxicity, cell-based"}}, "data": [{"smiles": "Cc1ccc(-n2cc(-c3nc4ccccc4c(=O)[nH]3)nn2)cc1", "values": [{"measurement": "Activity", "setting": "[1]", "value": "Non-Toxic"}, {"measurement": "IC50", "setting": "[2]", "value": 3.1, "unit": "µM"}, {"measurement": "MIC", "setting": "[3]", "value": "> 82.4", "unit": "µM"}]}, {"smiles": "O=c1[nH]c(-c2cn(-c3ccc(F)cc3)nn2)nc2ccccc12", "values": [{"measurement": "Activity", "setting": "[1]", "value": "Non-Toxic"}, {"measurement": "IC50", "setting": "[2]", "value": 1.95, "unit": "µM"}, {"measurement": "MIC", "setting": "[3]", "value": "> 81.4", "unit": "µM"}]}, {"smiles": "Cc1cc(C)c(-n2cc(-c3nc4ccccc4c(=O)[nH]3)nn2)c(C)c1", "values": [{"measurement": "Activity", "setting": "[1]", "value": "Non-Toxic"}, {"measurement": "IC50", "setting": "[2]", "value": 2.9, "unit": "µM"}, {"measurement": "MIC", "setting": "[3]", "value": "> 75.4", "unit": "µM"}]}, {"smiles": "CCc1ccc(-n2cc(-c3nc4ccccc4c(=O)[nH]3)nn2)cc1", "values": [{"measurement": "Activity", "setting": "[1]", "value": "Non-Toxic"}, {"measurement": "IC50", "setting": "[2]", "value": 3.25, "unit": "µM"}, {"measurement": "MIC", "setting": "[3]", "value": 78.8, "unit": "µM"}]}, {"smiles": "O=c1[nH]c(-c2cn(-c3ccc(Cl)cc3)nn2)nc2ccccc12", "values": [{"measurement": "Activity", "setting": "[1]", "value": "Non-Toxic"}, {"measurement": "IC50", "setting": "[2]", "value": 1.92, "unit": "µM"}, {"measurement": "MIC", "setting": "[3]", "value": 77.2, "unit": "µM"}]}, {"smiles": "Cc1ccc(-n2cc(-c3nc4ccccc4c(=O)[nH]3)nn2)c([N+](=O)[O-])c1", "values": [{"measurement": "Activity", "setting": "[1]", "value": "Non-Toxic"}, {"measurement": "IC50", "setting": "[2]", "value": 2.35, "unit": "µM"}, {"measurement": "MIC", "setting": "[3]", "value": "> 71.8", "unit": "µM"}]}, {"smiles": "O=c1[nH]c(-c2cn(-c3ccccc3)nn2)nc2ccccc12", "values": [{"measurement": "Activity", "setting": "[1]", "value": "Non-Toxic"}, {"measurement": "IC50", "setting": "[2]", "value": 2.56, "unit": "µM"}, {"measurement": "MIC", "setting": "[3]", "value": "> 86.4", "unit": "µM"}]}, {"smiles": "O=c1[nH]c(-c2cn(-c3ccc([N+](=O)[O-])cc3)nn2)nc2ccccc12", "values": [{"measurement": "Activity", "setting": "[1]", "value": "Non-Toxic"}, {"measurement": "IC50", "setting": "[2]", "value": 1.97, "unit": "µM"}, {"measurement": "MIC", "setting": "[3]", "value": 74.8, "unit": "µM"}]}, {"smiles": "COc1ccc(-n2cc(-c3nc4ccccc4c(=O)[nH]3)nn2)cc1", "values": [{"measurement": "IC50", "setting": "[2]", "value": 2.63, "unit": "µM"}, {"measurement": "inhibition at 78.29 µM", "setting": "[4]", "value": 24.3, "unit": "%"}, {"measurement": "MIC", "setting": "[3]", "value": 19.6, "unit": "µM"}]}, {"smiles": "O=c1[nH]c(-c2cn(-c3ccc(Br)cc3)nn2)nc2ccccc12", "values": [{"measurement": "IC50", "setting": "[2]", "value": 1.96, "unit": "µM"}, {"measurement": "inhibition at 66.37 µM", "setting": "[5]", "value": 29.8, "unit": "%"}, {"measurement": "MIC", "setting": "[3]", "value": 33.2, "unit": "µM"}]}, {"smiles": "O=c1[nH]c(-c2cn(-c3ccccc3F)nn2)nc2ccccc12", "values": [{"measurement": "IC50", "setting": "[2]", "value": 2.21, "unit": "µM"}, {"measurement": "inhibition at 81.35 µM", "setting": "[6]", "value": 27.2, "unit": "%"}, {"measurement": "MIC", "setting": "[3]", "value": 40.7, "unit": "µM"}]}, {"smiles": "O=c1[nH]c(-c2cn(-c3cccc(Cl)c3)nn2)nc2ccccc12", "values": [{"measurement": "Activity", "setting": "[1]", "value": "Non-Toxic"}, {"measurement": "IC50", "setting": "[2]", "value": 2.78, "unit": "µM"}, {"measurement": "MIC", "setting": "[3]", "value": "> 77.2", "unit": "µM"}]}, {"smiles": "CC[C@@H](CO)NCCN[C@@H](CC)CO", "note": "[ETHAMBUTOL]", "values": [{"measurement": "MIC", "setting": "[3]", "value": 7.64, "unit": "µM"}]}, {"smiles": "C=C[C@H]1CN2CC[C@H]1C[C@H]2[C@H](O)c1ccnc2ccc(OC)cc12", "note": "[QUININE]", "values": [{"measurement": "IC50", "setting": "[2]", "value": 0.826, "unit": "µM"}]}, {"smiles": "CO[C@H]1/C=C/O[C@@]2(C)Oc3c(C)c(O)c4c(O)c(c(/C=N/N5CCN(C)CC5)c(O)c4c3C2=O)NC(=O)/C(C)=C\\C=C\\[C@H](C)[C@H](O)[C@@H](C)[C@@H](O)[C@@H](C)[C@H](OC(C)=O)[C@@H]1C", "note": "[RIFAMPIN]", "values": [{"measurement": "MIC", "setting": "[3]", "value": 0.13, "unit": "µM"}]}]}
